Assay results: ChEMBL document CHEMBL1127972 (Bioorg Med Chem Lett, 1994)
Changes are numbered by the printed parent chain.

Assays:
[1] = biological target: T1, Muscarinic acetylcholine receptor M1 (Rattus norvegicus, UniProt P08482); experiment: In vitro binding affinity towards Muscarinic acetylcholine receptor M1 by the displacement of [3H]oxotremorine-M in rat brain membranes; format: cell membranes
T1 sequence (P08482 whole entry): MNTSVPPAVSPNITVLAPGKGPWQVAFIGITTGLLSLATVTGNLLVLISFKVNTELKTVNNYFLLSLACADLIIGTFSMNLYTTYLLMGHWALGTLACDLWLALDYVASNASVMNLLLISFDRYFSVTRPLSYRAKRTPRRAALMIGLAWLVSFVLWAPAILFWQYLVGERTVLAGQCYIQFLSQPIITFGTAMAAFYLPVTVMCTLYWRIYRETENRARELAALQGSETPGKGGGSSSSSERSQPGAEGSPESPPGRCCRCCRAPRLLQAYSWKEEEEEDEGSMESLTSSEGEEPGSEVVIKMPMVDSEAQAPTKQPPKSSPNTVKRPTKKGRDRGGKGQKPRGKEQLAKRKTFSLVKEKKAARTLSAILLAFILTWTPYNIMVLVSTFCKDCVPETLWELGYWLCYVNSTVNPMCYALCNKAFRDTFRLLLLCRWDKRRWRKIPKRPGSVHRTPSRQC

[2] = biological target: T1, Muscarinic acetylcholine receptor M1; experiment: In vitro binding affinity towards Muscarinic acetylcholine receptor M1 by the displacement of [3H]pirenzepine in rat cerebral cortical membranes; format: cell membranes, Membrane
[3] = biological target: T2, Muscarinic acetylcholine receptor M1 (Homo sapiens) (UniProt P11229); experiment: Percent stimulation of phospholipid hydrolysis in BHK cells transfected with human Muscarinic acetylcholine receptor M1 compared to maximal stimulation of carbachol at a dose of 100 uM; format: functional, cell-based
T2 sequence (whole entry): T1 sequence (P08482 whole entry) with V5A, S254T, S309P, K320R, G337A, V413I

## COc1nsnc1C1=C(C)CCN(C)C1
[1]
  IC50: 1000 nM
[2]
  IC50: 1000 nM

## C=CCCCOc1nsnc1C1=CCC(C)N(C)C1 (stereo not drawn)
[3]
  Stimulation: 12%
[1]
  IC50: 10 nM
[2]
  IC50: 8 nM

## CCCOc1nsnc1C1=CC(C)CN(C)C1 (stereo not drawn)
[3]
  Stimulation: 6%
[1]
  IC50: 17 nM
[2]
  IC50: 15 nM

## COc1nsnc1C1=CC(C)CN(C)C1 (stereo not drawn)
[1]
  IC50: 600 nM
[2]
  IC50: 580 nM

## CCCCCCOc1nsnc1C1=CCC(C)N(C)C1 (stereo not drawn)
[3]
  Stimulation: 27%
[1]
  IC50: 6 nM
[2]
  IC50: 5 nM

## CCC#CCCOc1nsnc1C1=CCC(C)N(C)C1 (stereo not drawn)
[3]
  Stimulation: 12%
[1]
  IC50: 6 nM
[2]
  IC50: 5 nM

## CCCCCCOc1nsnc1C1=CC2(C)CCCCC2(C)N(C)C1 (stereo not drawn)
[1]
  IC50: 1000 nM
[2]
  IC50: 1230 nM

## CCCCCCOc1nsnc1C1=C(C)CCN(C)C1
[1]
  IC50: 100 nM
[2]
  IC50: 112 nM

## COc1nsnc1C1=CCCN(C)C1
[3]
  Stimulation: 7%

## CCOc1nsnc1C1=CCC(C)N(C)C1 (stereo not drawn)
[3]
  Stimulation: 10%
[1]
  IC50: 11 nM
[2]
  IC50: 24 nM

## CCCCCCOc1nsnc1C1=CCCN(C)C1C (stereo not drawn)
[1]
  IC50: 83 nM
[2]
  IC50: 48 nM

## CCCCOc1nsnc1C1=CCC(C)N(C)C1 (stereo not drawn)
[3]
  Stimulation: 9%
[1]
  IC50: 9 nM
[2]
  IC50: 8 nM

## CCCCCCOc1nsnc1C1=CCCN(C)C1
[3]
  Stimulation: 70%

## CCCOc1nsnc1C1=CCCN(C)C1
[3]
  Stimulation: 25%
[1]
  IC50: 2 nM

## CCCCCCOc1nsnc1C1=CC(C)CN(C)C1 (stereo not drawn)
[3]
  Stimulation: 12%
[1]
  IC50: 14 nM
[2]
  IC50: 7 nM

## CCCCCOc1nsnc1C1=CCC(C)N(C)C1 (stereo not drawn)
[3]
  Stimulation: 18%
[1]
  IC50: 9 nM
[2]
  IC50: 5 nM
